Source: patent EP1400530A1, “Suppression of immune response via inhibition of cathepsin S” (MASSACHUSETTS INSTITUTE OF TECHNOLOGY, priority 1996, dated 1997)

Test system: Peripheral blood mononuclear cells (PBMC's)
Format: cell-based, human
Details: 3-5 days; 20 µM

## CCOC(=O)[C@H]1O[C@@H]1C(=O)N[C@@H](CC(C)C)C(=O)NCCC(C)C (relative stereo) [E64D]
  attenuation of 3H-thymidine uptake response to tetanus toxoid: approximately 60%
